From patent publication US9512107B2, “Therapeutically active compositions and their methods of use” (Agios Pharmaceuticals, Inc., priority 2012, dated 2016)
Changes are numbered by the printed parent chain.

Legend:
IDH2 R140Q = biological target: T1, IDH2 R140Q (Homo sapiens, UniProt P48735, R140Q); experiment: IDH2 R140Q enzymatic assay (cofactor depletion, similar format); type: biochemical; conditions: for IC50: read-out: Enz R140Q
T1 sequence (P48735 40-452 R140Q): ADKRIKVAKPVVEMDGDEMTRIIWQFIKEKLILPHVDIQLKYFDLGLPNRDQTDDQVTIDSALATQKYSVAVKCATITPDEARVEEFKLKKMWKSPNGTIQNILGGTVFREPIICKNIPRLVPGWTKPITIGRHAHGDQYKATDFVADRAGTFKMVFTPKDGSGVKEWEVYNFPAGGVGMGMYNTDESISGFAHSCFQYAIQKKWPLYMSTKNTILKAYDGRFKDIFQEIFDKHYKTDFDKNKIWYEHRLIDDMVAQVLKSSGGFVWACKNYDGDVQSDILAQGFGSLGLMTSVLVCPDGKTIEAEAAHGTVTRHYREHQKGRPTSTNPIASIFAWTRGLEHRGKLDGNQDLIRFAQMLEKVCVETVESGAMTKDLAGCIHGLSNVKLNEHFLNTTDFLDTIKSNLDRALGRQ

[1] = system: U87MG pLVX-IDH2 R140Q-neo cells; experiment: U87MG pLVX-IDH2 R140Q-neo cell based assay, 2-HG in media by LC-MS at 48 hours; conditions: for IC50: Homo sapiens, U-87 MG
Outline: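 U87MG cells stably expressing IDH2 R140Q were seeded overnight, then exposed to compound at 0.2% final DMSO at 37 °C, 5% CO2. 2-HG in the medium was quantified by LC-MS at 48 h. Growth inhibition was read by CellTiter-Glo luminescence at 72 h.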

IDH2 R172K = biological target: T2, IDH2 R172K (Homo sapiens, UniProt P48735, R172K); experiment: IDH2 R172K enzymatic assay (NADPH cofactor depletion, diaphorase/resazurin readout); type: biochemical; conditions: read-out: Enz R172K
T2 sequence (P48735 40-452 R172K): T1 sequence (P48735 40-452 R140Q) with Q101R, R133K
Description: Compounds are assayed for IDH2 R172K inhibitory activity through a cofactor depletion assay. […] The reaction is terminated by the addition of a second enzyme, diaphorase, and a corresponding substrate, resazurin. Diaphorase reduces resazurin to the highly fluorescent resorufin with the concomitant oxidation of NADPH to NADP, both halting the IDH2 reaction by depleting the available cofactor pool and facilitating quantitation of the amount of cofactor remaining after a specific time period through quantitative production of an easily detected fluorophore.
The test compound is then incubated for one hour at room temperature with the enzyme; before starting the IDH2 reaction with the addition of 10 μl of substrate mix containing 50 μM NADPH and 6.3 mM α-KG in the buffer described above. After a further one hour of incubation at room temperature, the reaction is halted and the remaining NADPH measured through conversion of resazurin to resorufin by the addition of 25 μl Stop Mix (36 μg/ml diaphorase enzyme and 60 μM resazurin; in buffer).

Row | Compound | IC50 (IDH2 R140Q) | IC50 [1] | IC50 (IDH2 R172K) | Enz R140Q (IDH2 R140Q) | Cell R140Q [1]
1 | CC(C)Nc1nc(Nc2ccnc(Cl)c2)nc(-c2ccccc2)n1 [Compound 199, N^2-(2-chloropyridin-4-yl)-N^4-isopropyl-6-phenyl-1,3,5-triazine-2,4-diamine] | < 100 nM | < 100 nM | < 100 nM | – | –
2 | COc1ccc(Nc2nc(NC(C)C)nc(-c3ccccc3)n2)cc1 [Compound 159] | 100 to 1000 nM | 100 to 1000 nM | 1000 to 10000 nM | – | –
3 | CC1(Nc2nc(Nc3cc(F)cc(F)c3)nc(-c3cccc(N)n3)n2)CC1 [Compound 693, 6-(6-aminopyridin-2-yl)-N2-(3,5-difluorophenyl)-N4-(1-methylcyclopropyl)-1,3,5-triazine-2,4-diamine] | 100 to 1000 nM | < 100 nM | < 100 nM | – | –
4 | CC(C)Nc1nc(Nc2cccc(S(=O)(=O)C(C)C)c2)nc(-c2ccccc2)n1 [Compound 206, N^2-isopropyl-N^4-(3-(isopropylsulfonyl)phenyl)-6-phenyl-1,3,5-triazine-2,4-diamine] | < 100 nM | 100 to 1000 nM | 100 to 1000 nM | – | –
5 | CC(C)(O)CNc1nc(Nc2ccnc(F)c2)nc(-c2cccc(C(F)(F)F)n2)n1 [Compound 500, 1-[4-(2-Fluoro-pyridin-4-ylamino)-6-(6-trifluoromethyl-pyridin-2-yl)-[1,3,5]triazin-2-ylamino]-2-methyl-propan-2-ol] | 100 to 1000 nM | < 100 nM | < 100 nM | – | –
6 | CC1CC1Nc1nc(Nc2ccnc(C(F)(F)F)c2)nc(-c2ccccn2)n1 (stereo not drawn) [Compound 516, N-(2-Methyl-cyclopropyl)-6-pyridin-2-yl-N′-(2-trifluoromethyl-pyridin-4-yl)-[1,3,5]triazine-2,4-diamine] | 100 to 1000 nM | < 100 nM | < 100 nM | – | –
7 | CC(C)Nc1nc(Nc2ccon2)nc(-c2ccccc2)n1 [Compound 169] | < 100 nM | 100 to 1000 nM | 100 to 1000 nM | – | –
8 | CC(C)Nc1nc(Nc2ccnc(C(F)(F)F)c2)nc(-c2cc(Cl)cc(C(F)(F)F)c2)n1 [Compound 644, 6-(3-Chloro-5-trifluoromethyl-phenyl)-N-isopropyl-N′-(2-trifluoromethyl-pyridin-4-yl)-[1,3,5]triazine-2,4-diamine] | 100 to 1000 nM | – | 1000 to 10000 nM | – | –
9 | COc1cc(F)cc(-c2nc(Nc3ccnc(C(F)(F)F)c3)nc(NC(C)C)n2)c1 [Compound 662, 6-(3-fluoro-5-methoxyphenyl)-N2-isopropyl-N4-(2-(trifluoromethyl)pyridin-4-yl)-1,3,5-triazine-2,4-diamine] | – | 100 to 1000 nM | 1000 to 10000 nM | – | –
10 | c1ccc(-c2nc(Nc3ccncc3)nc(NC3CC3)n2)cc1 [Compound 217, N^2-cyclopropyl-6-phenyl-N^4-(pyridin-4-yl)-1,3,5-triazine-2,4-diamine] | < 100 nM | – | 1000 to 10000 nM | – | –
11 | COc1ccc(-c2nc(Nc3ccccc3)nc(NC(C)C)n2)cc1 [Compound 116] | 100 to 1000 nM | – | 1000 to 10000 nM | – | –
12 | CC(C)Nc1nc(NC2CCOCC2)nc(-c2ccccc2)n1 [Compound 137] | 100 to 1000 nM | – | 1000 to 10000 nM | – | –
13 | Cc1cccc(C)c1-c1nc(Nc2ccccc2)nc(NC(C)C)n1 [Compound 117] | 100 to 1000 nM | – | 1000 to 10000 nM | – | –
14 | CC(C)Nc1nc(Nc2ccc(O)cc2)nc(-c2ccccc2)n1 [Compound 133] | 100 to 1000 nM | – | > 10000 nM | – | –
15 | O=C(Nc1nc(Nc2ccccc2)nc(-c2ccccc2)n1)C1CCCO1 (stereo not drawn) [Compound 243, N-(4-phenyl-6-(phenylamino)-1,3,5-triazin-2-yl)tetrahydrofuran-2-carboxamide] | 100 to 1000 nM | – | 1000 to 10000 nM | – | –
16 | CC(C)Nc1nc(Nc2ccnc(C(F)(F)F)c2)nc(-c2cc(O)cc(CO)c2)n1 [Compound 665, 3-(hydroxymethyl)-5-(4-(isopropylamino)-6-((2-(trifluoromethyl)pyridin-4-yl)amino)-1,3,5-triazin-2-yl)phenol] | – | < 100 nM | < 100 nM | – | –

Row | Compound | IC50 (IDH2 R140Q) | IC50 [1] | IC50 (IDH2 R172K) | Enz R140Q (IDH2 R140Q) | Cell R140Q [1]
17 | COc1cc(Cl)cc(-c2nc(Nc3cc(F)cc(F)c3)nc(NC(C)C)n2)n1 [Compound 486, 6-(4-chloro-6-methoxypyridin-2-yl)-N^2-(3,5-difluorophenyl)-N^4-isopropyl-1,3,5-triazine-2,4-diamine] | – | 100 to 1000 nM | 100 to 1000 nM | – | –
18 | COC(C)(C)CNc1nc(Nc2ccncc2)nc(-c2ccccc2)n1 [Compound 252, N^2-(2-methoxy-2-methylpropyl)-6-phenyl-N^4-(pyridin-4-yl)-1,3,5-triazine-2,4-diamine] | 100 to 1000 nM | – | 1000 to 10000 nM | – | –
19 | CC(C)Nc1nc(Nc2ccccc2C#N)nc(-c2ccccc2)n1 [Compound 165] | 100 to 1000 nM | – | 1000 to 10000 nM | – | –
20 | CC(C)Nc1nc(Nc2ccncc2F)nc(-c2ccccc2)n1 [Compound 292, N^2-(3-fluoropyridin-4-yl)-N^4-isopropyl-6-phenyl-1,3,5-triazine-2,4-diamine] | – | – | – | No Fit | No Fit
21 | CC(C)Nc1nc(Nc2ccnc(N3CCC3)c2)nc(-c2ccccc2)n1 [Compound 299, N^2-(2-(azetidin-1-yl)pyridin-4-yl)-N^4-isopropyl-6-phenyl-1,3,5-triazine-2,4-diamine] | < 100 nM | 100 to 1000 nM | – | – | –
22 | CC(C)Nc1nc(Nc2cnoc2)nc(-c2ccccc2)n1 [Compound 309, N^2-isopropyl-N^4-(isoxazol-4-yl)-6-phenyl-1,3,5-triazine-2,4-diamine] | < 100 nM | < 100 nM | – | – | –
23 | CC(C)Nc1nc(Nc2cccc(S(=O)(=O)N3CCC3)c2)nc(-c2cccc(Cl)n2)n1 [Compound 400, N^2-(3-(azetidin-1-ylsulfonyl)phenyl)-6-(6-chloropyridin-2-yl)-N^4-isopropyl-1,3,5-triazine-2,4-diamine] | 100 to 1000 nM | < 100 nM | – | – | –
24 | COCCCNc1nc(Nc2ccncc2)nc(-c2ccccc2)n1 [Compound 275, N^2-(3-methoxypropyl)-6-phenyl-N^4-(pyridin-4-yl)-1,3,5-triazine-2,4-diamine] | 100 to 1000 nM | 100 to 1000 nM | – | – | –
25 | CC(C)(O)CNc1nc(Nc2ccc(F)nc2)nc(-c2cccc(C(F)(F)F)n2)n1 [Compound 385, 1-(4-(6-fluoropyridin-3-ylamino)-6-(6-(trifluoromethyl)pyridin-2-yl)-1,3,5-triazin-2-ylamino)-2-methylpropan-2-ol] | 1000 to 10000 nM | 100 to 1000 nM | – | – | –
26 | CC(C)Nc1nc(Nc2cncc(C(F)(F)F)c2)nc(-c2ccccc2)n1 [Compound 329, N^2-isopropyl-6-phenyl-N^4-(5-(trifluoromethyl)pyridin-3-yl)-1,3,5-triazine-2,4-diamine] | < 100 nM | < 100 nM | – | – | –
27 | CC[S+]([O-])c1cccc(Nc2nc(NC(C)C)nc(-c3ccccc3)n2)c1 (stereo not drawn) [Compound 277, N^2-(3-(ethylsulfinyl)phenyl)-N^4-isopropyl-6-phenyl-1,3,5-triazine-2,4-diamine] | < 100 nM | 100 to 1000 nM | – | – | –
28 | CC(C)Nc1nc(Nc2ccnc(N3CCOCC3)c2)nc(-c2ccccc2)n1 [Compound 298, N^2-isopropyl-N^4-(2-morpholinopyridin-4-yl)-6-phenyl-1,3,5-triazine-2,4-diamine] | < 100 nM | < 100 nM | – | – | –
29 | CC(C)Nc1nc(Nc2ccnc(C(F)(F)F)c2)nc(-c2cccc(C(C)O)c2)n1 (stereo not drawn) [Compound 663, 1-(3-(4-(isopropylamino)-6-((2-(trifluoromethyl)pyridin-4-yl)amino)-1,3,5-triazin-2-yl)phenyl)ethanol] | – | < 100 nM | < 100 nM | – | –
30 | Clc1cncc(Nc2nc(NC3CCC3)nc(-c3ccccn3)n2)c1 [Compound 330, N^2-(5-chloropyridin-3-yl)-N^4-cyclobutyl-6-(pyridin-2-yl)-1,3,5-triazine-2,4-diamine] | 100 to 1000 nM | < 100 nM | – | – | –
31 | Fc1cncc(Nc2nc(NC3CCC3)nc(-c3cccc(Cl)n3)n2)c1 [Compound 323, 6-(6-chloropyridin-2-yl)-N^2-cyclobutyl-N^4-(5-fluoropyridin-3-yl)-1,3,5-triazine-2,4-diamine] | 100 to 1000 nM | < 100 nM | – | – | –
